Results: patent US20250115597A1, “TYK2 INHIBITORS AND COMPOSITIONS AND METHODS THEREOF” (LYNK PHARMACEUTICALS CO. LTD., priority 2021, published 2025)

Biological target: T1, Ba/F3-FL-TYK2-P760L cells (Homo sapiens, UniProt P29597, P760L, cells depend on it)
T1 construct: BaF3-FL-T2P760L (nM)
Assay: Anti-proliferative assay, Ba/F3-FL-TYK2-P760L cells (Cell-Titer Glo)
Format: cell-based
Settings: 72 h, read-out: BaF3-FL-T2P760L IC50
In short: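 Ba/F3 cells made IL-3-independent by TEL-fused or full-length mutant JAK-family kinases, seeded at 2000/well and dosed after 24 h with 9 three-fold dilutions topping at 20 μM. Viability after 72 h at 37 °C, 5% CO2 by Cell-Titer Glo ATP luminescence.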

T1 sequence (P29597 whole entry P760L): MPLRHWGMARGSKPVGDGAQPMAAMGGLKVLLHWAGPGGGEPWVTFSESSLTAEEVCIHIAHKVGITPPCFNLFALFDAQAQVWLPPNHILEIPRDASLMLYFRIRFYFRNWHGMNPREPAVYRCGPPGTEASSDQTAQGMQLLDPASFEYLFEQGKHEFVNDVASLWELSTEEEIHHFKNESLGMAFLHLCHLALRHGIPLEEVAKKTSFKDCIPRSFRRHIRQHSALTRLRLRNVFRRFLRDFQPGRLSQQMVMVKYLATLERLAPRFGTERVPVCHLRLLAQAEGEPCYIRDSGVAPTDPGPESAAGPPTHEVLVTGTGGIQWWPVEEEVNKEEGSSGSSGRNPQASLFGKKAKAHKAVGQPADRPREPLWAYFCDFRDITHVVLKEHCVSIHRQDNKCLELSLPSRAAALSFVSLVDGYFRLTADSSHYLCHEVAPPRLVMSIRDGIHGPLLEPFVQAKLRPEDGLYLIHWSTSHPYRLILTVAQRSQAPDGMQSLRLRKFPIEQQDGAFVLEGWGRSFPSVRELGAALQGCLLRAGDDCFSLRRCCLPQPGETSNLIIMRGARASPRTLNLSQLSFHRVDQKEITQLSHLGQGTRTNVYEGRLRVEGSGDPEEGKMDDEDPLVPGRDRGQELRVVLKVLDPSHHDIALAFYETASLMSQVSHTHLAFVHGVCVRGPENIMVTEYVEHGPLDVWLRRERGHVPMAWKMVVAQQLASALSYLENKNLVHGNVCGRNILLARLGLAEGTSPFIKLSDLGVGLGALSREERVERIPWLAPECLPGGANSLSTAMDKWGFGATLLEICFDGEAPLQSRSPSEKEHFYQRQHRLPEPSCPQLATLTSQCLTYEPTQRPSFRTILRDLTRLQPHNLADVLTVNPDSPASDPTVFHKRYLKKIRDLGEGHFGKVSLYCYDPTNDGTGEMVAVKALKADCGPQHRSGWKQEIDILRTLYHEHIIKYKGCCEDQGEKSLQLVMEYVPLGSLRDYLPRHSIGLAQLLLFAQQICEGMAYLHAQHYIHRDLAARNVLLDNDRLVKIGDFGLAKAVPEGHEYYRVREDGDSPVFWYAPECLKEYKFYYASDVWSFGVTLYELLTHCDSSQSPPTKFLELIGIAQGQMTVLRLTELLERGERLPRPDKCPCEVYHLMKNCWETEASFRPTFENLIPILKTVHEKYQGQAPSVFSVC

| GI50 [nM] | Structure (SMILES) |
| --- | --- |
| 902 | CNC(=O)c1cnc(NC(=O)C2CC2)cc1Nc1cc(Br)c2nn3c(c2c1OC)CCC3 [Example 155, 4-((6-Bromo-9-methoxy-2,3-dihydro-1H-pyrrolo[1,2-b]indazol-8-yl)amino)-6-(cyclopropanecarboxamido)-N-methylnicotinamide] |
| 179 | CCn1cc(Nc2cc(NC(=O)C3CC3)ncc2C(=O)NC)c2c(=O)n([C@H](C)C(F)(F)F)cnc21 (single isomer, unassigned) [Example 254A, (R*)-6-(cyclopropanecarboxamido)-4-((7-ethyl-4-oxo-3-(1,1,1-trifluoropropan-2-yl)-4,7-dihydro-3H-pyrrolo[2,3-d]pyrimidin-5-yl)amino)-N-(methyl-d3)nicotinamide] |
| 241 | CNC(=O)c1cnc(NC(=O)C2CC2)cc1Nc1cn(CCOC)c2ccn([C@H](C)C(F)(F)F)c(=O)c12 (single isomer, unassigned) [Example 201A, (R*)-6-(Cyclopropanecarboxamido)-4-((1-(2-methoxyethyl)-4-oxo-5-(1,1,1-trifluoropropan-2-yl)-4,5-dihydro-1H-pyrrolo[3,2-c]pyridin-3-yl)amino)-N-(methyl-d3)nicotinamide] |
| 1120 | [2H]C([2H])([2H])NC(=O)c1cnc(NC(=O)C2CC2)cc1Nc1cn(C)c2ccn(-c3cnn(C)c3)c(=O)c12 [Example 120, 6-(Cyclopropanecarboxamido)-N-(methyl-d3)-4-((1-methyl-5-(1-methyl-1H-pyrazol-4-yl)-4-oxo-4,5-dihydro-1H-pyrrolo[3,2-c]pyridin-3-yl)amino)nicotinamide] |
| 371 | CNC(=O)c1cnc(NC(=O)C2CC2)cc1Nc1cn(C)c2ccn(C(C)C)c(=O)c12 [Example 50, 6-(Cyclopropanecarboxamido)-4-((5-isopropyl-1-methyl-4-oxo-4,5-dihydro-1H-pyrrolo[3,2-c]pyridin-3-yl)amino)-N-methylnicotinamide] |
| 267 | CNC(=O)c1cnc(NC(=O)C2CC2)cc1Nc1csc2c(C)cn(C)c(=O)c12 [Example 188, 6-(Cyclopropanecarboxamido)-4-((5,7-dimethyl-4-oxo-4,5-dihydrothieno[3,2-c]pyridin-3-yl)amino)-N-methylnicotinamide] |
| 491 | [2H]C([2H])([2H])NC(=O)c1cnc(NC(=O)C2CC2)cc1Nc1csc2cnn(C(C)COC)c(=O)c12 (stereo not drawn) [Example 182, 6-(Cyclopropanecarboxamido)-4-((5-(1-methoxypropan-2-yl)-4-oxo-4,5-dihydrothieno[2,3-d]pyridazin-3-yl)amino)-N-(methyl-d3)nicotinamide] |
| 442 | [2H]C([2H])([2H])NC(=O)c1cnc(NC(=O)C2CC2)cc1Nc1csc2c(C)nn(CC)c(=O)c12 [Example 187, 6-(Cyclopropanecarboxamido)-4-((5-ethyl-7-methyl-4-oxo-4,5-dihydrothieno[2,3-d]pyridazin-3-yl)amino)-N-(methyl-d3)nicotinamide] |
| 80.2 | CCCn1ncc2ccc(Nc3cc(NC(=O)C4CC4)ncc3C(=O)NC)c(OC)c21 [Example 51, 6-(Cyclopropanecarboxamido)-4-((7-methoxy-1-propyl-1H-indazol-6-yl)amino)-N-methylnicotinamide] |
| 205 | [2H]C([2H])([2H])NC(=O)c1cnc(NC(=O)C2CC2)cc1Nc1csc2cnn(C(C)C(F)(F)F)c(=O)c12 (single isomer, unassigned) [Example 185A, (R*)-6-(cyclopropanecarboxamido)-N-(methyl-d3)-4-((4-oxo-5-(1,1,1-trifluoropropan-2-yl)-4,5-dihydrothieno[2,3-d]pyridazin-3-yl)amino)nicotinamide] |
| 91 | [2H]C([2H])([2H])NC(=O)c1cnc(NC(=O)C2CC2)cc1Nc1csc2c(F)cn(C)c(=O)c12 [Example 177, 6-(Cyclopropanecarboxamido)-4-((7-fluoro-5-methyl-4-oxo-4,5-dihydrothieno[3,2-c]pyridin-3-yl)amino)-N-(methyl-d3)nicotinamide] |

Continued, compound first:

| Structure (SMILES) | GI50 [nM] |
| --- | --- |
| [2H]C([2H])([2H])NC(=O)c1cnc(Nc2ccc(F)cn2)cc1Nc1cn(C)c2c(Cl)cn(C([2H])([2H])[2H])c(=O)c12 [Example 170, 4-((7-Chloro-1-methyl-5-(methyl-d3)-4-oxo-4,5-dihydro-1H-pyrrolo[3,2-c]pyridin-3-yl)amino)-6-((5-fluoropyridin-2-yl)amino)-N-(methyl-d3)nicotinamide] | 27.6 |
| [2H]C([2H])([2H])NC(=O)c1cnc(NC(=O)C2CC2)cc1Nc1ccc2cnn(C3CC3)c2c1OC([2H])([2H])[2H] [Example 145, 6-(Cyclopropanecarboxamido)-4-((1-cyclopropyl-7-(methoxy-d3)-1H-indazol-6-yl)amino)-N-(methyl-d3)nicotinamide] | 83.6 |
| [2H]C([2H])([2H])NC(=O)c1cnc(Nc2ccc(F)cn2)cc1Nc1ccn2ncc(C)c2c1OC [Example 222, 6-((5-Fluoropyridin-2-yl)amino)-4-((4-methoxy-3-methylpyrazolo[1,5-a]pyridin-5-yl)amino)-N-(methyl-d3)nicotinamide] | 155 |
| [2H]C([2H])([2H])N1Cc2nc(NC(=O)C3CC3)cc(Nc3ccc4cnn(CC)c4c3OC)c2C1=O [Example 210, N-(4-((1-ethyl-7-methoxy-1H-indazol-6-yl)amino)-6-(methyl-d3)-5-oxo-6,7-dihydro-5H-pyrrolo[3,4-b]pyridin-2-yl)cyclopropanecarboxamide] | > 5000 |
| [2H]C([2H])([2H])NC(=O)c1cnc(Nc2ccc(F)cn2)cc1Nc1cn(C)c2c(F)cn(C)c(=O)c12 [Example 122, 4-((7-Fluoro-1,5-dimethyl-4-oxo-4,5-dihydro-1H-pyrrolo[3,2-c]pyridin-3-yl)amino)-6-((5-fluoropyridin-2-yl)amino)-N-(methyl-d3)nicotinamide] | 34.7 |
| [2H]C([2H])([2H])NC(=O)c1cnc(Nc2cnn(C3CCOC3)c2)nc1Nc1cccc(-c2ncn(C)n2)c1OC (stereo not drawn) [Example 31, 4-((2-Methoxy-3-(1-methyl-1H-1,2,4-triazol-3-yl)phenyl)amino)-N-(methyl-d3)-2-((1-(tetrahydrofuran-3-yl)-1H-pyrazol-4-yl)amino)pyrimidine-5-carboxamide] | 303 |
| [2H]C([2H])([2H])NC(=O)c1nnc2cc1Nc1cc(cc(-c3nnc(C)o3)c1OC)COCc1nc(ccc1F)N2 [Example 90, 18-Fluoro-10-methoxy-N-(methyl-d3)-11-(5-methyl-1,3,4-oxadiazol-2-yl)-15-oxa-2,4,5,8,21-pentaazatetracyclo[15.3.1.1^{3,7}.1^{9,13}]tricosa-1(20),3,5,7(23),9(22),10,12,17(21),18-nonaene-6-carboxamide] | 126 |
| [2H]C([2H])([2H])NC(=O)c1cnc(Nc2ccc(F)cn2)cc1Nc1cn(C)c2c(Cl)cn(C)c(=O)c12 [Example 159, 4-((7-Chloro-1,5-dimethyl-4-oxo-4,5-dihydro-1H-pyrrolo[3,2-c]pyridin-3-yl)amino)-6-((5-fluoropyridin-2-yl)amino)-N-(methyl-d3)nicotinamide] | 28.3 |
| [2H]C([2H])([2H])NC(=O)c1cnc(Nc2ccc(F)cn2)cc1Nc1cn(C)c2c(F)cn(CC(F)(F)F)c(=O)c12 [Example 124, 4-((7-Fluoro-1-methyl-4-oxo-5-(2,2,2-trifluoroethyl)-4,5-dihydro-1H-pyrrolo[3,2-c]pyridin-3-yl)amino)-6-((5-fluoropyridin-2-yl)amino)-N-(methyl-d3)nicotinamide] | 34.8 |
| [2H]C([2H])([2H])NC(=O)c1cnc(Nc2ccc(F)cc2)nc1Nc1csc2ccn(C)c(=O)c12 [Example 29, 2-((4-Fluorophenyl)amino)-N-(methyl-d3)-4-((5-methyl-4-oxo-4,5-dihydrothieno [3,2-c]pyridin-3-yl)amino) pyrimidine-5-carboxamide] | > 20000 |
| [2H]C([2H])([2H])NC(=O)c1cnc(NC(=O)C2CC2)cc1Nc1ccc2cnn(C(C)C)c2c1OC [Example 126, 6-(Cyclopropanecarboxamido)-4-((1-isopropyl-7-methoxy-1H-indazol-6-yl)amino)-N-(methyl-d3)nicotinamide] | 522 |
| [2H]C([2H])([2H])NC(=O)c1nnc2cc1Nc1cc(cc(-c3ccn(C4CC4)n3)c1OC)COCc1cc(F)cc(n1)N2 [Example 94, 11-(1-Cyclopropyl-1H-pyrazol-3-yl)-19-fluoro-10-methoxy-N-(methyl-d3)-15-oxa-2,4,5,8,21-pentaazatetracyclo[15.3.1.1^{3,7}.1^{9,13}]tricosa-1(21),3,5,7(23),9(22),10,12,17,19-nonaene-6-carboxamide] | 293 |
| [2H]C([2H])([2H])NC(=O)c1cnc(NC(=O)C2CC2)cc1Nc1cn(C([2H])([2H])[2H])c2ccn(C(C)C(F)(F)F)c(=O)c12 (stereo not drawn) [Example 199, 6-(Cyclopropanecarboxamido)-N-(methyl-d3)-4-((1-(methyl-d3)-4-oxo-5-(1,1,1-trifluoropropan-2-yl)-4,5-dihydro-1H-pyrrolo[3,2-c]pyridin-3-yl)amino)nicotinamide] | 175 |
| CNC(=O)c1nnc(NC(=O)C2CC2)cc1Nc1cccc2cc[nH]c(=O)c12 [Example 26, 6-(Cyclopropanecarboxamido)-N-methyl-4-((1-oxo-1,2-dihydroisoquinolin-8-yl)amino)pyridazine-3-carboxamide] | > 20000 |
| [2H]C([2H])([2H])NC(=O)c1cnc(Nc2cc(C)c(F)cn2)nc1Nc1cccc(-c2ncn(C)n2)c1OC [Example 59, 2-((5-Fluoro-4-methylpyridin-2-yl)amino)-4-((2-methoxy-3-(1-methyl-1H-1,2,4-triazol-3-yl)phenyl)amino)-N-(methyl-d3)pyrimidine-5-carboxamide] | 1930 |
| CCn1ncc2ccc(Nc3ccnc(NC(=O)C4CC4)c3)c(OC)c21 [Example 237, N-(4-((1-ethyl-7-methoxy-1H-indazol-6-yl)amino)pyridin-2-yl)cyclopropanecarboxamide] | 4070 |
